Target: T1, CFTR (Homo sapiens, UniProt P13569, DEL508-508)
T1 construct: Primary CF airway epithelial cells were obtained from the UNC Cystic Fibrosis Tissue Procurement and Cell Culture Core; host or cells: primary CF airway epithelial cells, differentiated at the air-liquid interface
Test: Equivalent current assay in primary CF airway epithelial cells (NAUC, combination with 1st site corrector FDL169 or VX-809)
Format: cell-based
Details: 37° C., 24 h
Method: Primary CF airway epithelial cells were obtained from the UNC Cystic Fibrosis Tissue Procurement and Cell Culture Core. The cells are grown at 37° C. in a Heracell 150i incubator using growth media (BEGM, Fischer). […] Two days before the Ussing assay the mucus on the apical surface of the cells was aspirated after incubating with 200 μL of differentiation media for at least thirty (30) minutes. One day before the Ussing assay test compounds were added to the basolateral surface of the cells at various test concentrations dissolved in DMSO. Duplicate wells were prepared giving a n=3 or n=4 protocol.
Cells were treated for 24 hours with various combinations and concentrations of the test articles, reference standard (3 μM VX809 or 3 μM FDL169, positive control). Compounds stock solutions were prepared in DMSO and diluted 1/1000 into ALI media to their final assay concentration. Cells were treated with combination solutions (2 mL of each dilution) and incubated at 37° C. for 24 h.
For the equivalent current assay, cells on four Transwell (24-well) plates were treated. Each Transwell plate was filled with 200 μl of HBS on the apical surface and 2 ml on the basolateral surface. Plates were placed horizontally in a heated mount at 37° C., and equilibrated for several minutes. Resting current was measured for 15 min and then blocked by the apical addition of 5 μM benzamil. After 20 min, 10 μM forskolin and 1 μM VX770 were added to both the apical and basolateral side to stimulate CFTR. An increase in chloride current is seen as an upward deflection of the trace.
The raw data, current vs. time for the Ussing chamber (sampling interval: 10 s) and voltage vs. time and resistance vs. time for the equivalent current assay (sampling interval: 5 minutes) were transferred to Excel (Microsoft Office Professional, version 14.0.7106.5003) for analysis. […] This average is equivalent to the sum of the average forskolin activated and the average VX770-potentiated currents. The average current measured in vehicle (0.1% DMSO) treated cells, Iv, was subtracted from the current for the test article, ITA, or from the corrector reference standard VX809 (3 uM ISTD). For replicate measurements, the average vehicle subtracted response for the test article, was normalized to the average vehicle subtracted inhibitor response of the reference corrector VX809 (3 μM).
A second endpoint, for the equivalent current assay, evaluated was NAUC, the normalized area under the curve (AUC) measuring the response after addition of forskolin and VX770 to the time point right before the addition of the CFTR inhibitor. The AUC is effectively the average response multiplied by the duration of the response.
NAUCTA=[AUCTA−AUCV,ave]/[AUCVx809r,ave−AUCV,ave] (Equation 2).
Experiments were run with a minimum of n=4 replicates per concentration. Since the distribution for the ratio of two normal distributions is a Cauchy distribution, the median value must be used for the average and the average deviation must be used for the error of all normalized data.
E=Emin+(Emax−Emin)/(1+10^((LogEC5OS)*nH)) (Equation 3)

[1] = test compound 3 μM in combination with 1st site corrector VX-809 (3 μM)
[2] = test compound 10 μM in combination with 1st site corrector VX-809 (3 μM)
[3] = test compound 1 μM in combination with 1st site corrector VX-809 (3 μM)
[4] = test compound 1 μM in combination with 1st site corrector FDL169 (3 μM)
[5] = test compound 3 μM in combination with 1st site corrector FDL169 (3 μM)
[6] = test compound 10 μM in combination with 1st site corrector FDL169 (3 μM)

T1 sequence (P13569 with tags, fused parts or gaps DEL508-508): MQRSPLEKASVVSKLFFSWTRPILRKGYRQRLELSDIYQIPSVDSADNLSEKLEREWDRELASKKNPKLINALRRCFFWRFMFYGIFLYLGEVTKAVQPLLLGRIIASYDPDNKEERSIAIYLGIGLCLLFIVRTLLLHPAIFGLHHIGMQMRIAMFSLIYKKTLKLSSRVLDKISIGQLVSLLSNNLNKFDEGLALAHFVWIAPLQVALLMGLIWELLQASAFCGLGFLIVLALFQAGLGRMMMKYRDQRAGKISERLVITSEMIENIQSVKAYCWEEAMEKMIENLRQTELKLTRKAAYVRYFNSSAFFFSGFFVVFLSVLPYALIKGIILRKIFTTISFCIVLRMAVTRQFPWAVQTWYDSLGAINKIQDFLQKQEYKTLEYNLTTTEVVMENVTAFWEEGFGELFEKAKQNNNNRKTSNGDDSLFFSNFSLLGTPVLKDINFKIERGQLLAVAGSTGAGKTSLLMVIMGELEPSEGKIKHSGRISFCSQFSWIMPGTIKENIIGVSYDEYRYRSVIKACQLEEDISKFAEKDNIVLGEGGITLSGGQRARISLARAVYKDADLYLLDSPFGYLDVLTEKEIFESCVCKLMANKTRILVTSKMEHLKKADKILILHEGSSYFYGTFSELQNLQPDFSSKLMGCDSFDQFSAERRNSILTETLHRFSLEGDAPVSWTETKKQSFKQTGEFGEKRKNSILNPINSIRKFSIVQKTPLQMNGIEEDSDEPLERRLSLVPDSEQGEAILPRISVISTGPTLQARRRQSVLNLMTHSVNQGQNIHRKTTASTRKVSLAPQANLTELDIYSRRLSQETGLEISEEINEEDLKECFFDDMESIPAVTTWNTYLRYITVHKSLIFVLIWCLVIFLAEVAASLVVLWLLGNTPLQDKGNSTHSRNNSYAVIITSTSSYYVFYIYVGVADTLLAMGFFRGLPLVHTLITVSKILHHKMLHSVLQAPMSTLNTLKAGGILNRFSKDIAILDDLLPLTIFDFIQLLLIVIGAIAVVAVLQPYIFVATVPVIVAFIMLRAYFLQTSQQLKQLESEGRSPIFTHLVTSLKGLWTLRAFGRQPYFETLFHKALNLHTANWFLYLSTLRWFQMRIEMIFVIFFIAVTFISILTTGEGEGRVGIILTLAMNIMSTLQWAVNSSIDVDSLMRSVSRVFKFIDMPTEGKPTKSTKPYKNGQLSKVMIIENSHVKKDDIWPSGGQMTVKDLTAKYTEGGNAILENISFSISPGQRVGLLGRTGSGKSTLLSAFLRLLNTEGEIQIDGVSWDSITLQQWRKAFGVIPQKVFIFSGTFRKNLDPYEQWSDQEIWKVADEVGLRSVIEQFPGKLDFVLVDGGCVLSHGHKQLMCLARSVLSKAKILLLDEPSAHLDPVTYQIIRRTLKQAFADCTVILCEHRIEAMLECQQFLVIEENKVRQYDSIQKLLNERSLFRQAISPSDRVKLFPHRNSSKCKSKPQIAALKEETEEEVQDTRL

Row | SMILES | Nauc @ 3 μM [1] | Nauc @ 10 μM [2] | Nauc @ 1 μM [3] | Nauc @ 1 μM [4] | Nauc @ 3 μM [5] | Nauc @ 10 μM [6]
1 | Cc1ccccc1CCNC(=O)C1C2CC(F)(F)CN2C2(C(=O)Nc3c(Cl)cc(Cl)cc32)C1C(=O)O (stereo not drawn) [Example 47] | ++ (NAUC “++” refers to an observed NAUC 170-140% of positive control) | +++ (NAUC “+++” refers to an observed NAUC>170% of positive control) | – | – | – | –
2 | CON(C)C(=O)[C@H]1[C@@H](C(=O)Nc2cc(Cl)cc(Cl)c2)[C@H]2CCCN2[C@]12C(=O)Nc1c(Cl)cc(Cl)cc12 (single isomer, unassigned) [Example 241, (1′R,2′ S,7a′R)-5,7-dichloro-N1′-(3,5-dichlorophenyl)-N2′-methoxy-N2′-methyl-2-oxo-1′,2′,5′,6′,7′,7a′-hexahydrospiro[indoline-3,3′-pyrrolizine]-1′,2′-dicarboxamide] | +++ (NAUC “+++” refers to an observed NAUC>170% of positive control) | ++ (NAUC “++” refers to an observed NAUC 170-140% of positive control) | ++ (NAUC “++” refers to an observed NAUC 170-140% of positive control) | – | – | –
3 | Cn1nccc1NC(=O)[C@H]1[C@@H](C(=O)Nc2cc(Cl)cc(Cl)c2)[C@H]2CCCN2[C@]12C(=O)Nc1c(Cl)cc(Cl)cc12 (single isomer, unassigned) [Example 239, (1′R,2′ S,7a′R)-5,7-dichloro-N1′-(3,5-dichlorophenyl)-N2′-(1-methyl-1H-pyrazol-5-yl)-2-oxo-1′,2′,5′,6′,7′,7a′-hexahydrospiro[indoline-3,3′-pyrrolizine]-1′,2′-dicarboxamide] | + (NAUC “+” refers to an observed NAUC <140% of positive control) | + (NAUC “+” refers to an observed NAUC <140% of positive control) | + (NAUC “+” refers to an observed NAUC <140% of positive control) | – | – | –
4 | C[C@]1(O)C[C@@H]2[C@H](C(=O)Nc3cc(Cl)cc(Cl)c3)[C@H](C(N)=O)[C@@]3(C(=O)Nc4c(Cl)cc(Cl)cc43)N2C1 [Example 244, (1′R,2′S,6′S,7a′R)-5,7-dichloro-N1′-(3,5-dichlorophenyl)-6′-hydroxy-6′-methyl-2-oxo-1′,2′,5′,6′,7′,7a′-hexahydrospiro[indoline-3,3′-pyrrolizine]-1,2′-dicarboxamide] | + (NAUC “+” refers to an observed NAUC <140% of positive control) | + (NAUC “+” refers to an observed NAUC <140% of positive control) | + (NAUC “+” refers to an observed NAUC <140% of positive control) | – | – | –
5 | Cn1ccc2c(NC(=O)[C@H]3[C@H]4CC(F)(F)CN4[C@]4(C(=O)Nc5c(Cl)cc(Cl)cc54)[C@H]3C(=O)O)cccc21 [Example 141] | – | – | – | + (NAUC “+” refers to an observed NAUC <140% of positive control) | + (NAUC “+” refers to an observed NAUC <140% of positive control) | –
6 | CC(C)(CN(C(=O)[C@H]1[C@H]2CC(F)(F)CN2[C@]2(C(=O)Nc3c(Cl)cc(Cl)cc32)[C@H]1C(=O)O)c1cc(Cl)cc(Cl)c1)C(F)(F)F [Example 154] | – | – | – | +++ (NAUC “+++” refers to an observed NAUC>170% of positive control) | +++ (NAUC “+++” refers to an observed NAUC>170% of positive control) | + (NAUC “+” refers to an observed NAUC <140% of positive control)
7 | O=C(O)[C@H]1[C@@H](C(=O)N(CC2CCCCCC2)c2cc(Cl)cc(Cl)c2)[C@H]2CC(F)(F)CN2[C@]12C(=O)Nc1c(Cl)cc(Cl)cc12 [Example 178] | – | – | – | +++ (NAUC “+++” refers to an observed NAUC>170% of positive control) | +++ (NAUC “+++” refers to an observed NAUC>170% of positive control) | ++ (NAUC “++” refers to an observed NAUC 170-140% of positive control)
8 | O=C(Nc1cc(Cl)cc(Cl)c1)C1C2CCCN2C2(C(=O)Nc3c(Cl)cc(Cl)cc32)C1C(=O)NO (single isomer, unassigned) [Example 234a, 5,7-dichloro-N1′-(3,5-dichlorophenyl)-N2′-hydroxy-2-oxo-1′,2′,5′,6′,7′,7a′-hexahydrospiro[indoline-3,3′-pyrrolizine]-1,2′-dicarboxamide] | ++ (NAUC “++” refers to an observed NAUC 170-140% of positive control) | ++ (NAUC “++” refers to an observed NAUC 170-140% of positive control) | ++ (NAUC “++” refers to an observed NAUC 170-140% of positive control) | – | – | –
9 | CN(C(=O)[C@H]1[C@H]2CC(F)(F)CN2[C@]2(C(=O)Nc3c(Cl)cc(Cl)cc32)[C@H]1C(=O)NS(C)(=O)=O)c1cc(Cl)cc(Cl)c1 (relative stereo) [Example 231, rel-(1′R,2′S,3R,7a′R)-5,7-dichloro-N1′-(3,5-dichlorophenyl)-6′,6′-difluoro-N1′-methyl-N2′-(methylsulfonyl)-2-oxo-1′,2′,5′,6′,7′,7a′-hexahydrospiro[indoline-3,3′-pyrrolizine]-1′,2′-dicarboxamide] | – | + (NAUC “+” refers to an observed NAUC <140% of positive control) | – | – | – | –
10 | O=C(Nc1nccc2cccnc12)[C@H]1[C@H]2CC(F)(F)CN2[C@]2(C(=O)Nc3c(Cl)cc(Cl)cc32)[C@H]1C(=O)O [Example 135] | + (NAUC “+” refers to an observed NAUC <140% of positive control) | + (NAUC “+” refers to an observed NAUC <140% of positive control) | + (NAUC “+” refers to an observed NAUC <140% of positive control) | – | – | –
11 | CC(C)(C)c1cccc(CCNC(=O)C2C(C(F)(F)F)NC3(C(=O)Nc4c(Cl)cc(Cl)cc43)C2C(=O)O)c1 (stereo not drawn) [Example 45] | +++ (NAUC “+++” refers to an observed NAUC>170% of positive control) | +++ (NAUC “+++” refers to an observed NAUC>170% of positive control) | – | – | – | –
12 | O=C(Nc1cc(Cl)cc(Cl)c1)C1C(C(F)(F)c2ccc(Cl)cc2)NC2(C(=O)Nc3c(Cl)cc(Cl)cc32)C1C(=O)O (stereo not drawn) [Example 67.9a, 5,7-dichloro-5,7′-((4-chlorophenyl)difluoromethyl)-4′-((3,5-dichlorophenyl)carbamoyl)-2-oxospiro[indoline-3,2′-pyrrolidine]-3′-carboxylic acid] | – | + (NAUC “+” refers to an observed NAUC <140% of positive control) | – | – | – | –
13 | Cc1oc(=O)oc1COC(=O)[C@H]1[C@@H](C(=O)N(C)c2cc(Cl)cc(Cl)c2)[C@H]2CC(F)(F)CN2C12C(=O)N(Cc1oc(=O)oc1C)c1c(Cl)cc(Cl)cc12 (mixture of isomers) [Example 250.3b, rac-(5-methyl-2-oxo-1,3-dioxo1-4-yl)methyl (1′R,2′S,3R,7a′R)-5,7-dichloro-1′-((3,5-dichlorophenyl)(methyl)carbamoyl)-6′,6′-difluoro-1-45-methyl-2-oxo-1,3-dioxol-4-yl)methyl)-2-oxo-1′,2′,5′,6′,7′,7a′-hexahydrospiro[indoline-3,3′-pyrrolizine]-2′-carboxylate] | – | + (NAUC “+” refers to an observed NAUC <140% of positive control) | – | – | – | –
14 | COc1c(Cl)cc(N(C)C(=O)[C@H]2[C@H]3CC(F)(F)CN3C3(C(=O)Nc4c(Cl)cc(Cl)cc43)[C@H]2C(=O)O)cc1Cl (stereo partly drawn) [Example 291] | + (NAUC “+” refers to an observed NAUC <140% of positive control) | +++ (NAUC “+++” refers to an observed NAUC>170% of positive control) | + (NAUC “+” refers to an observed NAUC <140% of positive control) | – | – | –

From patent publication US20230055237A1, “COMPOUNDS AND METHODS FOR THE TREATMENT OF CYSTIC FIBROSIS” (Flatley Discovery Lab, LLC, priority 2019, published 2023)
